From PMC7655571, “Acetylcholinesterase inhibition in electric eel and human donor blood: an in vitro approach to investigate interspecies differences and human variability in toxicodynamics” (Archives of Toxicology, 2020)
Entries after “also recorded” stand apart in the source; their conditions may differ. Like-named read-outs stand apart in the source and are kept apart here.

Key:
electric eel AChE = settings: cited from earlier work
[1] = target: T1, Electrophorus electricus AChE (Electrophorus electricus, UniProt O42275); test: AChE inhibition, electric eel enzyme (Ellman method); format: biochemical; settings: for AChE inhibition (in words), electric eel: concentration–response curves
T1 construct: purchased Sigma-Aldrich C2888
T1 sequence (O42275 24-633): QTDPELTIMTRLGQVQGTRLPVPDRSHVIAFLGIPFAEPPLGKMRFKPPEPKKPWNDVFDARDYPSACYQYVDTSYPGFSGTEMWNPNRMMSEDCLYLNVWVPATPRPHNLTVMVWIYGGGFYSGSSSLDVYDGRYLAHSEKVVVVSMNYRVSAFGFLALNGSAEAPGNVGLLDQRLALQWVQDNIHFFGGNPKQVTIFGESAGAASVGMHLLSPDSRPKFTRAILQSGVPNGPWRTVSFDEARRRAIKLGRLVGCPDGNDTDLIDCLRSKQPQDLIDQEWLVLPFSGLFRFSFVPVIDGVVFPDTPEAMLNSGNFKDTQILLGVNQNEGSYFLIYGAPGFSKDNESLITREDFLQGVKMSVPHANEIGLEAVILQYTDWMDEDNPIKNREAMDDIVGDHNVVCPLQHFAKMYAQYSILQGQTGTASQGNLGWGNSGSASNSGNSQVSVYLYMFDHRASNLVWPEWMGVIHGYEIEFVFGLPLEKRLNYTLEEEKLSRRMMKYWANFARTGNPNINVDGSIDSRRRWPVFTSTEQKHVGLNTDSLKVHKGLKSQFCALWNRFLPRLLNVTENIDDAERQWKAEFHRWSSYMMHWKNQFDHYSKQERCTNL
Method: (§1) A 1.3 mM DTNB buffer and a 6 mM acetylthiocholine buffer were prepared in the 50 mM sodium phosphate buffer, a 3 mM ethopropazine buffer was prepared in sterile water and all were stored in aliquots at − 20 °C. A 600 µM ethopropazine buffer was prepared just before use in sodium phosphate buffer.
(§2) Stock solutions were diluted in methanol to create a dosing series and also stored at − 20 °C. These series were 100× diluted in sodium phosphate buffer to get 1% methanol solutions, resulting in a final concentration of 0.1% methanol in the wells.
AChE from Electrophorus electricus (electric eel) and freshly drawn (maximum one-day-old), venous EDTA whole blood samples from healthy human donors were used. […] Following incubation for 30 min at room temperature, electric eel AChE was used directly in the enzyme activity assay (see “Enzyme activity assay”). For human blood AChE, 50 µL of the blood was added to a new 48-wells plate and 950 µL Triton buffer was added to these wells (20× dilution).
Briefly, 20 µL of electric eel AChE or 20 µL of Triton-diluted blood (either exposed or unexposed) and 20 µL ethopropazine were added to 460 µL of DTNB buffer in a 48-wells plate. […] Blank wells contained only DTNB buffer and unexposed enzyme/blood to correct for any background absorbance. To these wells, 100 µL sodium phosphate buffer was added instead of acetylthiocholine after incubation. The final concentration of electric eel AChE was 4 mU/well.
All in vitro data were analysed in GraphPad Prism (version 8.4) and are expressed as mean ± standard deviation (SD). For data analysis, vehicle control (0.1% methanol) was set at 100% for both human and electric eel AChE. For human blood, the technical replicates were averaged to perform statistical tests. […] The electric eel AChE data consisted of 3 technical replicates per experiment and 3–4 independent biological replicates.

[2] = target: human AChE (recombinant enzyme); settings: source: recombinant enzyme; ref Li et al. ([2019]); cited from earlier work
human blood AChE = target: T2, human blood AChE (Homo sapiens, UniProt P22303); test: AChE inhibition in human donor whole blood (Ellman method); format: biochemical; settings: for AChE inhibition (in words), human blood: concentration–response curves; for Coefficient of variation (CV) C1 Human / Coefficient of variation (CV) C2 Human / Coefficient of variation (CV) C3 Human / Coefficient of variation (CV) C4 Human / Coefficient of variation (CV) C5 Human / Coefficient of variation (CV) C6 Human: human variability in AChE inhibition; for Coefficient of variation (CV) C1 Human: concentration level C1 (Table S2); for Coefficient of variation (CV) C2 Human: concentration level C2 (Table S2); for Coefficient of variation (CV) C3 Human: concentration level C3 (Table S2); for Coefficient of variation (CV) C4 Human: concentration level C4 (Table S2); for Coefficient of variation (CV) C5 Human: concentration level C5 (Table S2); for Coefficient of variation (CV) C6 Human: highest concentration C6 (Table S2); for Human uncertainty factor (UF) UF97.5: interindividual differences, concentration closest to the IC20, 95% CI in brackets
T2 construct: 90 µL undiluted blood in a 48-wells plate; from tissue; host or cells: venous EDTA whole blood from healthy human donors, lysed and diluted in Triton X-100 buffer
T2 sequence (P22303 32-617 isoform P22303-2 limits assumed): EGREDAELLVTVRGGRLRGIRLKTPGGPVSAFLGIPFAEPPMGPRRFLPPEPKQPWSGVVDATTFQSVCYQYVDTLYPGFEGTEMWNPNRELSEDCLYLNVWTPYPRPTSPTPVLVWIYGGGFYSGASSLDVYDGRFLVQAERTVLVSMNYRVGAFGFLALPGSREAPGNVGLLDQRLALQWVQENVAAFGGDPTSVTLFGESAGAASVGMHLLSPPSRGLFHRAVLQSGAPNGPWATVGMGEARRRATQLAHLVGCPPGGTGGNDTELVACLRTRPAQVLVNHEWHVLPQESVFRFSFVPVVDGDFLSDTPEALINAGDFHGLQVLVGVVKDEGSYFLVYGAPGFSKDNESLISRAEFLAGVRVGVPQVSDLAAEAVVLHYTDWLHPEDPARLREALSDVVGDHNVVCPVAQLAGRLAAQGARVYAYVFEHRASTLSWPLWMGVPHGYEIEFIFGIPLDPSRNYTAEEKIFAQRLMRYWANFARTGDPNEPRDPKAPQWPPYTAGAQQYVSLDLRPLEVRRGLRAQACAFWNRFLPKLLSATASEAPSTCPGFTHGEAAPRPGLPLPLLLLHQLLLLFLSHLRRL
Method: as §1, §2
AChE from Electrophorus electricus (electric eel) and freshly drawn (maximum one-day-old), venous EDTA whole blood samples from healthy human donors were used. […] For human blood AChE, 50 µL of the blood was added to a new 48-wells plate and 950 µL Triton buffer was added to these wells (20× dilution).
Briefly, 20 µL of electric eel AChE or 20 µL of Triton-diluted blood (either exposed or unexposed) and 20 µL ethopropazine were added to 460 µL of DTNB buffer in a 48-wells plate. […] Blank wells contained only DTNB buffer and unexposed enzyme/blood to correct for any background absorbance. To these wells, 100 µL sodium phosphate buffer was added instead of acetylthiocholine after incubation.
Unexposed, diluted blood (100 µL) was added to a 96-wells plate and 100 µL transformation agent (20 mg potassium ferricyanide, 5 mg potassium cyanide, 100 mg sodium bicarbonate and 50 µL Triton X-100 in 100 mL water) was added. […] Blank wells contained transformation reagent and buffer to correct for any background absorbance.
All in vitro data were analysed in GraphPad Prism (version 8.4) and are expressed as mean ± standard deviation (SD). For data analysis, vehicle control (0.1% methanol) was set at 100% for both human and electric eel AChE. For human blood, the technical replicates were averaged to perform statistical tests. Unpaired t tests were used to test for differences between men and women and a one-way ANOVA followed by a post-hoc Tukey test was used to compare data between different age groups (group 1: ≥ 60 years; group 2: 31–60 years; group 3: ≤ 30 years).

[3] = measured or estimated in plasma following human exposure, cited from earlier work
human AChE (neocortex) = settings: source: neocortex; ref Jackisch et al. [2009]; cited from earlier work
[4] = 30 min exposure, room temperature
[5] = 30 min exposure, room temperature, 3–4 independent experiments, read-out: IC50 Electric eel
[6] = IC50 Human, whole blood, average of 20 donors

Structure (SMILES): CCOP(=O)(OCC)Oc1cc(C)nc(C(C)C)n1 [DZO, diazinon-oxon]
- IC50 (electric eel AChE; ref Čolović et al. ([2011])): 0.05 µM
- IC20 [1, 4]: 0.41 µM
- IC50 [1, 5]: 1.03 µM
- AChE inhibition (in words), electric eel [1]: show inhibition of AChE
- IC50 [2]: 1.3 µM
- AChE inhibition (in words), human blood (human blood AChE): show inhibition of AChE
- IC20 (human blood AChE; donor 1, read-out: IC20 Value): 0.5 µM
- IC50 (human blood AChE; donor 1, read-out: IC50 Value): 1.5 µM
- IC20 (human blood AChE; donor 2, read-out: IC20 Value): 0.7 µM
- IC50 (human blood AChE; donor 2, read-out: IC50 Value): 1.7 µM
- IC20 (human blood AChE; donor 3, read-out: IC20 Value): 1 µM
- IC50 (human blood AChE; donor 3, read-out: IC50 Value): 2.3 µM
- IC20 (human blood AChE; donor 4, read-out: IC20 Value): 0.4 µM
- IC50 (human blood AChE; donor 4, read-out: IC50 Value): 1.5 µM
- IC20 (human blood AChE; donor 5, read-out: IC20 Value): 0.7 µM
- IC50 (human blood AChE; donor 5, read-out: IC50 Value): 1.6 µM
- IC20 (human blood AChE; donor 6, read-out: IC20 Value): 1.4 µM
- IC50 (human blood AChE; donor 6, read-out: IC50 Value): 2.6 µM
- IC20 (human blood AChE; donor 7, read-out: IC20 Value): 1.2 µM
- IC50 (human blood AChE; donor 7, read-out: IC50 Value): 2.4 µM
- IC20 (human blood AChE; donor 8, read-out: IC20 Value): 1.2 µM
- IC50 (human blood AChE; donor 8, read-out: IC50 Value): 2.2 µM
- IC20 (human blood AChE; donor 9, read-out: IC20 Value): 1.1 µM
- IC50 (human blood AChE; donor 9, read-out: IC50 Value): 2.1 µM
- IC20 (human blood AChE; donor 10, read-out: IC20 Value): 1.9 µM
- IC50 (human blood AChE; donor 10, read-out: IC50 Value): 4.5 µM
- IC20 (human blood AChE; donor 11, read-out: IC20 Value): 1.7 µM
- IC50 (human blood AChE; donor 11, read-out: IC50 Value): 2.9 µM
- IC20 (human blood AChE; donor 12, read-out: IC20 Value): 1.9 µM
- IC50 (human blood AChE; donor 12, read-out: IC50 Value): 3.7 µM
- IC20 (human blood AChE; donor 13, read-out: IC20 Value): 1.1 µM
- IC20 (human blood AChE; donor 14, read-out: IC20 Value): 1.3 µM
- IC50 (human blood AChE; donor 14, read-out: IC50 Value): 2.8 µM
- IC20 (human blood AChE; donor 15, read-out: IC20 Value): 0.9 µM
- IC50 (human blood AChE; donor 15, read-out: IC50 Value): 1.9 µM
- IC20 (human blood AChE; donor 16, read-out: IC20 Value): 1.3 µM
- IC50 (human blood AChE; donor 16, read-out: IC50 Value): 3 µM
- IC20 (human blood AChE; donor 17, read-out: IC20 Value): 0.9 µM
- IC50 (human blood AChE; donor 17, read-out: IC50 Value): 2.2 µM
- IC20 (human blood AChE; donor 18, read-out: IC20 Value): 1.4 µM
- IC50 (human blood AChE; donor 18, read-out: IC50 Value): 2.9 µM
- IC20 (human blood AChE; donor 19, read-out: IC20 Value): 1.9 µM
- IC50 (human blood AChE; donor 19, read-out: IC50 Value): 3.4 µM
- IC20 (human blood AChE; donor 20, read-out: IC20 Value): 1.3 µM
- IC50 (human blood AChE; donor 20, read-out: IC50 Value): 2.7 µM
- Coefficient of variation (CV) C1 Human (human blood AChE): 5.9%
- Coefficient of variation (CV) C2 Human (human blood AChE): 5.7%
- Coefficient of variation (CV) C3 Human (human blood AChE): 6.8%
- Coefficient of variation (CV) C4 Human (human blood AChE): 6.1%
- Coefficient of variation (CV) C5 Human (human blood AChE): 8.5%
- Coefficient of variation (CV) C6 Human (human blood AChE): 25%
- Human uncertainty factor (UF) UF97.5 (human blood AChE): 1.4 [1.2–1.6]
- IC20 (human blood AChE; whole blood, average of 20 donors, read-out: IC20 Human): 1.2 µM
- IC50 (human blood AChE; whole blood, average of 20 donors, read-out: IC50 Human): 2.5 µM

Structure (SMILES): Cc1nc(N(C)C)nc(OC(=O)N(C)C)c1C [PI, pirimicarb]
- IC20 [1, 4]: 9.9 µM
- IC50 [1, 5]: 61 µM
- AChE inhibition (in words), electric eel [1]: show inhibition of AChE
- In vivo concentration ([3]; ref Hoffmann et al. ([2008])): ≤ 300 µM
- IC50 (human blood AChE; [6]): 20 µM
- IC50 (human blood AChE; IC50 Value, donor 1): 19 µM
- IC50 (human blood AChE; IC50 Value, donor 2): 19 µM
- IC50 (human blood AChE; IC50 Value, donor 3): 17 µM
- IC50 (human blood AChE; IC50 Value, donor 4): 22 µM
- IC50 (human blood AChE; IC50 Value, donor 5): 17 µM
- IC50 (human blood AChE; IC50 Value, donor 6): 24 µM
- IC50 (human blood AChE; IC50 Value, donor 7): 23 µM
- IC50 (human blood AChE; IC50 Value, donor 8): 26 µM
- IC50 (human blood AChE; IC50 Value, donor 9): 15 µM
- IC50 (human blood AChE; IC50 Value, donor 11): 29 µM
- IC50 (human blood AChE; IC50 Value, donor 12): 18 µM
- IC50 (human blood AChE; IC50 Value, donor 13): 19 µM
- IC50 (human blood AChE; IC50 Value, donor 14): 15 µM
- IC50 (human blood AChE; IC50 Value, donor 15): 16 µM
- IC50 (human blood AChE; IC50 Value, donor 16): 14 µM
- IC50 (human blood AChE; IC50 Value, donor 17): 16 µM
- IC50 (human blood AChE; IC50 Value, donor 18): 22 µM
- IC50 (human blood AChE; IC50 Value, donor 19): 28 µM
- IC50 (human blood AChE; IC50 Value, donor 20): 19 µM
- AChE inhibition (in words), human blood (human blood AChE): show inhibition of AChE
- Coefficient of variation (CV) C1 Human (human blood AChE): 5.8%
- Coefficient of variation (CV) C2 Human (human blood AChE): 6.0%
- Coefficient of variation (CV) C3 Human (human blood AChE): 6.9%
- Coefficient of variation (CV) C4 Human (human blood AChE): 5.7%
- Coefficient of variation (CV) C5 Human (human blood AChE): 5.8%
- Coefficient of variation (CV) C6 Human (human blood AChE): 6.6%
- Human uncertainty factor (UF) UF97.5 (human blood AChE): 1.8 [1.5–2.1]
- IC20 (human blood AChE; read-out: IC20 Human, whole blood, average of 20 donors): 7.1 µM
- IC20 (human blood AChE; read-out: IC20 Value, donor 1): 8.6 µM
- IC20 (human blood AChE; read-out: IC20 Value, donor 2): 6.4 µM
- IC20 (human blood AChE; read-out: IC20 Value, donor 3): 5.8 µM
- IC20 (human blood AChE; read-out: IC20 Value, donor 4): 8 µM
- IC20 (human blood AChE; read-out: IC20 Value, donor 5): 5.9 µM
- IC20 (human blood AChE; read-out: IC20 Value, donor 6): 9.3 µM
- IC20 (human blood AChE; read-out: IC20 Value, donor 7): 6.4 µM
- IC20 (human blood AChE; read-out: IC20 Value, donor 8): 8.1 µM
- IC20 (human blood AChE; read-out: IC20 Value, donor 9): 4.2 µM
- IC20 (human blood AChE; read-out: IC20 Value, donor 10): 5.3 µM
- IC20 (human blood AChE; read-out: IC20 Value, donor 11): 7 µM
- IC20 (human blood AChE; read-out: IC20 Value, donor 12): 8.8 µM
- IC20 (human blood AChE; read-out: IC20 Value, donor 13): 4.7 µM
- IC20 (human blood AChE; read-out: IC20 Value, donor 14): 6.1 µM
- IC20 (human blood AChE; read-out: IC20 Value, donor 15): 6 µM
- IC20 (human blood AChE; read-out: IC20 Value, donor 16): 5.9 µM
- IC20 (human blood AChE; read-out: IC20 Value, donor 17): 4.8 µM
- IC20 (human blood AChE; read-out: IC20 Value, donor 18): 9.2 µM
- IC20 (human blood AChE; read-out: IC20 Value, donor 19): 18 µM
- IC20 (human blood AChE; read-out: IC20 Value, donor 20): 3.4 µM

Structure (SMILES): COP(=S)(OC)SCN1C(=O)c2ccccc2C1=O [PM, phosmet]
- IC50 [1]: > 1.4 µM
- AChE inhibition (in words), electric eel [1]: do not show any AChE inhibition; also recorded: did not inhibit AChE
- AChE inhibition (in words), electric eel ([1]; listed as phosmet): did not show inhibition
- IC50 Value Human [2]: Inactive
- In vivo concentration ([3]; ref Santori et al. ([2020])): ≤ 50 µM
- IC50 (human blood AChE; [6]): > 30 µM
- AChE inhibition (in words), human blood (human blood AChE): do not inhibit AChE activity; also recorded: do not show any AChE inhibition; also recorded: did not inhibit AChE
- AChE inhibition (in words), human blood (human blood AChE; listed as phosmet): did not show inhibition

Structure (SMILES): CCN(C)C(=O)Oc1cccc([C@H](C)N(C)C)c1 [RI, rivastigmine]
- IC20 [1, 4]: 16 µM
- AChE inhibition (in words), electric eel [1]: show inhibition of AChE
